Reference: patent US20080140036A1, “Antimicrobial Composition” (priority 2004, published 2008)

Legend:
Strain T4 MSSA [1] = experiment: MIC of triclosan (direct contact); assay type: cell-based, S. aureus
[2] = test system: Oxford S. aureus NCTC 6571; experiment: ZOI of triclosan vapours (vapour phase); assay type: cell-based
S. aureus NCBC 11882 = experiment: ZOI of triclosan vapours (vapour phase); assay type: cell-based
[3] = test system: S. epidermidis NCTC 11047; experiment: ZOI of triclosan vapours (vapour phase); assay type: cell-based
Strain T1 MSSA = experiment: ZOI of triclosan vapours (vapour phase); assay type: cell-based, S. aureus
Strain T4 MSSA [4] = experiment: ZOI of triclosan vapours (vapour phase); assay type: cell-based, S. aureus
MSSA (46) = experiment: ZOI of triclosan vapours (vapour phase); assay type: cell-based, S. aureus
MSSA (47) = experiment: ZOI of triclosan vapours (vapour phase); assay type: cell-based, S. aureus
[5] = test system: all strains of staphylococci; experiment: MIC of triclosan (direct contact), all strains; assay type: cell-based
[6] = test system: all staphylococcal strains; experiment: Vapours of triclosan, all strains; assay type: cell-based, Staphylococcus; details: vapour phase
[7] = test system: EMRSA m97 271 032 phage group 10; experiment: MIC of triclosan (direct contact)
MRSA 11 = experiment: ZOI of triclosan vapours (vapour phase)
MRSA 13 = experiment: ZOI of triclosan vapours (vapour phase)
MRSA 14 = experiment: ZOI of triclosan vapours (vapour phase)
MRSA 15 = experiment: ZOI of triclosan vapours (vapour phase)
MRSA 16 = experiment: ZOI of triclosan vapours (vapour phase)
MRSA 17 = experiment: ZOI of triclosan vapours (vapour phase)
MRSA 20 = experiment: ZOI of triclosan vapours (vapour phase)
MRSA 26 = experiment: ZOI of triclosan vapours (vapour phase)
[8] = test system: EMRSA m97 271 031 phage group 1; experiment: ZOI of triclosan vapours (vapour phase)
[9] = test system: EMRSA m97 271 038 phage group 2; experiment: ZOI of triclosan vapours (vapour phase)
[10] = test system: EMRSA j95 922 phage group 3; experiment: ZOI of triclosan vapours (vapour phase)
[11] = test system: EMRSA m97271052 phage group 4; experiment: ZOI of triclosan vapours (vapour phase)
[12] = test system: EMRSA m972 71041 phage group 5; experiment: ZOI of triclosan vapours (vapour phase)
[13] = test system: EMRSA m97 271 047 phage group 8; experiment: ZOI of triclosan vapours (vapour phase)
[14] = test system: EMRSA m972 710 40 phage group 9; experiment: ZOI of triclosan vapours (vapour phase)
[15] = test system: EMRSA m97 271 042 phage group 12; experiment: ZOI of triclosan vapours (vapour phase)
[16] = test system: EMRSA m97 271 064 phage group 14; experiment: ZOI of triclosan vapours (vapour phase)
[17] = test system: EMRSA g96 139 515 phage group 15; experiment: ZOI of triclosan vapours (vapour phase)
[18] = test system: EMRSA g96 138 744 phage group 16; experiment: ZOI of triclosan vapours (vapour phase)

## Oc1cc(Cl)ccc1Oc1ccc(Cl)cc1Cl [triclosan]
Strain T4 MSSA [1]
  MIC: 0.25 Mg ml^−1−
[2]; average
  ZOI Average: 51 mm
[2]; replicate 1
  ZOI 1: 50 mm
[2]; replicate 2
  ZOI 2: 52 mm
S. aureus NCBC 11882; average
  ZOI Average: 48 mm
S. aureus NCBC 11882; replicate 1
  ZOI 1: 47 mm
S. aureus NCBC 11882; replicate 2
  ZOI 2: 49 mm
[3]; average
  ZOI Average: 50.5 mm
[3]; replicate 1
  ZOI 1: 50 mm
[3]; replicate 2
  ZOI 2: 51 mm
Strain T1 MSSA; average
  ZOI Average: 45.5 mm
Strain T1 MSSA; replicate 1
  ZOI 1: 46 mm
Strain T1 MSSA; replicate 2
  ZOI 2: 45 mm
Strain T4 MSSA [4]; average
  ZOI Average: 51 mm
Strain T4 MSSA [4]; replicate 1
  ZOI 1: 50 mm
Strain T4 MSSA [4]; replicate 2
  ZOI 2: 52 mm
MSSA (46); average
  ZOI Average: 45 mm
MSSA (46); replicate 1
  ZOI 1: 45 mm
MSSA (46); replicate 2
  ZOI 2: 45 mm
MSSA (47); average
  ZOI Average: 51.5 mm
MSSA (47); replicate 1
  ZOI 1: 52 mm
MSSA (47); replicate 2
  ZOI 2: 51 mm
[5]
  concentration able to inhibit all strains of staphylococci: 2 µg/mL
[6]
  effect of vapours on growth: effective at inhibiting growth of all staphylococcal strains
[7]
  MIC: 0.5 Mg ml^−1−
MRSA 11; average
  ZOI Average: 43 mm
MRSA 11; replicate 1
  ZOI 1: 43 mm
MRSA 11; replicate 2
  ZOI 2: 43 mm
MRSA 13; average
  ZOI Average: 47 mm
MRSA 13; replicate 1
  ZOI 1: 47 mm
MRSA 13; replicate 2
  ZOI 2: 47 mm
MRSA 14; average
  ZOI Average: 55 mm
MRSA 14; replicate 1
  ZOI 1: 55 mm
MRSA 14; replicate 2
  ZOI 2: 55 mm
MRSA 15; average
  ZOI Average: 50 mm
MRSA 15; replicate 1
  ZOI 1: 50 mm
MRSA 15; replicate 2
  ZOI 2: 50 mm
MRSA 16; average
  ZOI Average: 55.5 mm
MRSA 16; replicate 1
  ZOI 1: 55 mm
MRSA 16; replicate 2
  ZOI 2: 56 mm
MRSA 17; average
  ZOI Average: 32 mm
MRSA 17; replicate 1
  ZOI 1: 31 mm
MRSA 17; replicate 2
  ZOI 2: 33 mm
MRSA 20; average
  ZOI Average: 55 mm
MRSA 20; replicate 1
  ZOI 1: 55 mm
MRSA 20; replicate 2
  ZOI 2: 55 mm
MRSA 26; average
  ZOI Average: 40 mm
MRSA 26; replicate 1
  ZOI 1: 40 mm
MRSA 26; replicate 2
  ZOI 2: 40 mm
[8]; average
  ZOI Average: 41 mm
[8]; replicate 1
  ZOI 1: 42 mm
[8]; replicate 2
  ZOI 2: 40 mm
[9]; average
  ZOI Average: 57 mm
[9]; replicate 1
  ZOI 1: 57 mm
[9]; replicate 2
  ZOI 2: 57 mm
[10]; average
  ZOI Average: 54 mm
[10]; replicate 1
  ZOI 1: 55 mm
[10]; replicate 2
  ZOI 2: 53 mm
[11]; average
  ZOI Average: 50 mm
[11]; replicate 1
  ZOI 1: 50 mm
[11]; replicate 2
  ZOI 2: 50 mm
[12]; average
  ZOI Average: 55 mm
[12]; replicate 1
  ZOI 1: 55 mm
[12]; replicate 2
  ZOI 2: 55 mm
[13]; average
  ZOI Average: 52 mm
[13]; replicate 1
  ZOI 1: 52 mm
[13]; replicate 2
  ZOI 2: 52 mm
[14]; average
  ZOI Average: 55 mm
[14]; replicate 1
  ZOI 1: 55 mm
[14]; replicate 2
  ZOI 2: 55 mm
[15]; average
  ZOI Average: 45 mm
[15]; replicate 1
  ZOI 1: 45 mm
[15]; replicate 2
  ZOI 2: 45 mm
[16]; average
  ZOI Average: 35 mm
[16]; replicate 1
  ZOI 1: 35 mm
[16]; replicate 2
  ZOI 2: 35 mm
[17]; average
  ZOI Average: 47 mm
[17]; replicate 1
  ZOI 1: 47 mm
[17]; replicate 2
  ZOI 2: 47 mm
[18]; average
  ZOI Average: 50 mm
[18]; replicate 1
  ZOI 1: 50 mm
[18]; replicate 2
  ZOI 2: 50 mm
